According to US10245261B2, “Substituted indol-5-ol derivatives and their therapeutic applications” (NantBioScience, Inc., priority 2013, dated 2019):

What was measured:
Experiment in all cases: KinaseProfiler kinase assay
Format in all cases: biochemical
[1] = molecular target: PKCδ(h) (Homo sapiens, UniProt Q05655)
Method in brief: (§1)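 Using a filter-binding 33P format, reactions initiated by MgATP addition proceeded 40 min at room temperature before a 3% phosphoric acid stop. Filtermats were washed three times in 50 mM phosphoric acid and once in methanol, dried and counted.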

[2] = molecular target: Rsk3(h) (Homo sapiens, UniProt Q15349)
Method in brief: as §1

[3] = molecular target: Txk(h) (Homo sapiens, UniProt P42681)
Method in brief: as §1

[4] = molecular target: JNK3(h) (Homo sapiens, UniProt P53779)
JNK3(h), sequence (P53779 whole entry): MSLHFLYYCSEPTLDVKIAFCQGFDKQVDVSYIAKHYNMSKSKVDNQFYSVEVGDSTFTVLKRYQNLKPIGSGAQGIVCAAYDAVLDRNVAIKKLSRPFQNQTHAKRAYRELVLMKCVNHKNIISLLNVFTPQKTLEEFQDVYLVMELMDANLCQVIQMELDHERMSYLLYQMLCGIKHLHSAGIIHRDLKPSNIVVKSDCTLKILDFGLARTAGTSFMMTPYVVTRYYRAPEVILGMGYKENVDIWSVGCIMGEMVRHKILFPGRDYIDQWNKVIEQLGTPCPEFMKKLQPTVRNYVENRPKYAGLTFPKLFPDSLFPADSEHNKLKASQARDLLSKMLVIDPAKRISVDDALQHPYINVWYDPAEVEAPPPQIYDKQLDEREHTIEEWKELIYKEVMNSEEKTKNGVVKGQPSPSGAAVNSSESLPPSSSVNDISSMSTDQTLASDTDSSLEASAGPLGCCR
Method in brief: as §1

[5] = molecular target: Lyn(h) (Homo sapiens, UniProt P07948)
Method in brief: as §1

[6] = molecular target: Tie2(R849W)(h) (Homo sapiens, UniProt Q02763, R849W)
Tie2(R849W)(h), sequence (Q02763 23-1124 R849W): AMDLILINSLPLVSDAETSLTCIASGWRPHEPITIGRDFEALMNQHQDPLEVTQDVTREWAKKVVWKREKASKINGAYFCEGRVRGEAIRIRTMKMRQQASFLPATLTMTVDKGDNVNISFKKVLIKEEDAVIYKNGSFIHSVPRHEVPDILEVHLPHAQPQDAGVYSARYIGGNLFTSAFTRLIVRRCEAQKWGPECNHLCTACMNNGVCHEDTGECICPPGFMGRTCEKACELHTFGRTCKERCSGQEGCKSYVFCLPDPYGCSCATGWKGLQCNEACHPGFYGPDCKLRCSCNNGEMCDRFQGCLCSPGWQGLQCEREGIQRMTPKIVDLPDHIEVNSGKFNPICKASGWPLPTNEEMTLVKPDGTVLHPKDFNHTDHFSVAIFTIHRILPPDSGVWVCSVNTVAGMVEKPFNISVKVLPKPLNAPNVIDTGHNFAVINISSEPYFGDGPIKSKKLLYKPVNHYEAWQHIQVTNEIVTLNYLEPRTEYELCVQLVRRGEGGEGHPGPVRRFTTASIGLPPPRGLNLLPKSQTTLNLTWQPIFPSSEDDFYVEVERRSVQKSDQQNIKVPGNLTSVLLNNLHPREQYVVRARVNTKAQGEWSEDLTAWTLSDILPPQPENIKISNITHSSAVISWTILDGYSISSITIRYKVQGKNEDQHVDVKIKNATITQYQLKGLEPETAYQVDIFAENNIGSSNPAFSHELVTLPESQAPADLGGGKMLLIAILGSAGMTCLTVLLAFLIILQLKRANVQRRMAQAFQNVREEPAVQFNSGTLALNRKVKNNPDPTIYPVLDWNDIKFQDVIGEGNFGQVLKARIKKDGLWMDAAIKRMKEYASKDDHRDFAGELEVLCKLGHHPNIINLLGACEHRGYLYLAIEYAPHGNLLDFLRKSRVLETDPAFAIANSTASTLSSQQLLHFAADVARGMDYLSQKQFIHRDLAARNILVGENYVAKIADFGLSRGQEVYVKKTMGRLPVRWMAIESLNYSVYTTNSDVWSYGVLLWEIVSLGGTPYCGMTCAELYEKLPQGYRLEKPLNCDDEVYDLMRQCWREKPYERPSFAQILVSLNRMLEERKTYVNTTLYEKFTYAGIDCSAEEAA
Method in brief: as §1

[7] = molecular target: SAPK4(h) (Homo sapiens, UniProt O15264)
SAPK4(h), sequence (O15264 whole entry): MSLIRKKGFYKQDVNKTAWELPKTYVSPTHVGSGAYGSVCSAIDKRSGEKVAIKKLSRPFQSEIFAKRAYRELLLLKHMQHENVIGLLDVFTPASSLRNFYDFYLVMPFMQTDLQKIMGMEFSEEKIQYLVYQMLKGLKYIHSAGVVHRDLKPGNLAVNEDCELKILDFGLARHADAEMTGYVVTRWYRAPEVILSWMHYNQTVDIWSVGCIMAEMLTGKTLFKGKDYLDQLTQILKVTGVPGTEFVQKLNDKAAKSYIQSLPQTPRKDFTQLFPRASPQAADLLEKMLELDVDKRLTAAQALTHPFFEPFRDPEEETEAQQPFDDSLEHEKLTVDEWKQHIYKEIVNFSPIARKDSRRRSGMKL
Method in brief: as §1

[8] = molecular target: Blk(h) (Homo sapiens, UniProt P51451)
Method in brief: as §1

[9] = molecular target: PKG1α(h) (Homo sapiens, UniProt Q13976)
Method in brief: as §1

[10] = molecular target: CSK(h) (Homo sapiens, UniProt P41240)
Method in brief: as §1

[11] = molecular target: Hck(h) (Homo sapiens, UniProt P08631)
Method in brief: as §1

[12] = molecular target: PKCι(h) (Homo sapiens, UniProt P41743)
Method in brief: as §1

[13] = molecular target: TAO2(h) (Homo sapiens, UniProt Q9UL54)
Method in brief: as §1

[14] = molecular target: EGFR(T790M, L858R)(h) (Homo sapiens, UniProt P00533, L858R/T790M)
Method in brief: as §1

[15] = molecular target: Blk(m) (Mus musculus, UniProt P16277)
Method in brief: as §1

[16] = molecular target: EphB1(h) (Homo sapiens, UniProt P54762)
Method in brief: as §1

[17] = molecular target: TLK2(h) (Homo sapiens, UniProt Q86UE8)
TLK2(h), sequence (Q86UE8 whole entry): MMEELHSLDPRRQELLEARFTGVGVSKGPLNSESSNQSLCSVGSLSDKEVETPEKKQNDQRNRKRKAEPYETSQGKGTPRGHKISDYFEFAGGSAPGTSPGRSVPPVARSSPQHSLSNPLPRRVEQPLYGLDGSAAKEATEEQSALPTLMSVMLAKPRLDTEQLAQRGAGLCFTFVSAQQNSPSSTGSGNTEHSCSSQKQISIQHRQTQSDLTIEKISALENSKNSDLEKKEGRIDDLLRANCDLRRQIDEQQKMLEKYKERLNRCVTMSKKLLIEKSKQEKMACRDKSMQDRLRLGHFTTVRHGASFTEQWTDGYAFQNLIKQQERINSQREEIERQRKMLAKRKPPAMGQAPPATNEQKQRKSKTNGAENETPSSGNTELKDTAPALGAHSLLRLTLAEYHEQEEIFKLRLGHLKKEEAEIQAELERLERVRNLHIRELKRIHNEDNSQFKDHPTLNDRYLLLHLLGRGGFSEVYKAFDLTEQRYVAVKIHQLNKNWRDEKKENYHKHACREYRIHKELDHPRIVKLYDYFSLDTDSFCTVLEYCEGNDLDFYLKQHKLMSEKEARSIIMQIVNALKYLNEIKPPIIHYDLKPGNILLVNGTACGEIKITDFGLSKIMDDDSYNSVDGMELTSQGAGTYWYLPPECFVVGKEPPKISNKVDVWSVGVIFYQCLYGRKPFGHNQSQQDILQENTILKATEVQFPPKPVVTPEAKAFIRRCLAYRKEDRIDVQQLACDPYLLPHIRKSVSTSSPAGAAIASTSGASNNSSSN
Method in brief: as §1

[18] = molecular target: MELK(h) (Homo sapiens, UniProt Q14680)
MELK(h), sequence (Q14680 whole entry): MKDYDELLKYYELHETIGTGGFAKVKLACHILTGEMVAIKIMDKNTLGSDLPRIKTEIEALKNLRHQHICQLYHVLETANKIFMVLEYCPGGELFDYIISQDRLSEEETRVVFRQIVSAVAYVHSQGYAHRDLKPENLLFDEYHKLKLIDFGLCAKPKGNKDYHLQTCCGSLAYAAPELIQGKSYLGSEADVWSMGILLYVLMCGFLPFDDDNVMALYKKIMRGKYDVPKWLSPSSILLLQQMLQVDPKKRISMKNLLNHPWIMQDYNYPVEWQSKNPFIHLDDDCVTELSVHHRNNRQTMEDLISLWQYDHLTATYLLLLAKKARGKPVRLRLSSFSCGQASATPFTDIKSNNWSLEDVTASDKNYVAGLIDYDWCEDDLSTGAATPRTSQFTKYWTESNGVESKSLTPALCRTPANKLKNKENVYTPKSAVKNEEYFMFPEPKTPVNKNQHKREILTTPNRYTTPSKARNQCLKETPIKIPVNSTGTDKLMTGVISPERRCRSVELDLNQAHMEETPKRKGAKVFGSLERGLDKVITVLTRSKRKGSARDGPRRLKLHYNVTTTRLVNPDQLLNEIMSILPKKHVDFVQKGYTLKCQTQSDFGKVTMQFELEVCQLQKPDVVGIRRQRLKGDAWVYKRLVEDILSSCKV
Method in brief: as §1

[19] = molecular target: PKCα(h) (Homo sapiens, UniProt P17252)
Method in brief: as §1

[20] = molecular target: Mer(h) (Homo sapiens, UniProt Q12866)
Method in brief: as §1

[21] = molecular target: EphA7(h) (Homo sapiens, UniProt Q15375)
Method in brief: as §1

[22] = molecular target: cKit(h) (Homo sapiens, UniProt P10721)
Method in brief: as §1

[23] = molecular target: ULK3(h) (Homo sapiens, UniProt Q6PHR2)
Method in brief: as §1

[24] = molecular target: NLK(h) (Homo sapiens, UniProt Q9UBE8)
Method in brief: as §1

[25] = molecular target: ARK5(h) (Homo sapiens, UniProt O60285)
Method in brief: as §1

[26] = molecular target: DDR2(h) (Homo sapiens, UniProt Q16832)
Method in brief: as §1

[27] = molecular target: PI3 Kinase (p110β/p85α)(m) (Mus musculus, UniProt Q8BTI9)
Method in brief: as §1

[28] = molecular target: SGK3(h) (Homo sapiens, UniProt Q96BR1)
SGK3(h), sequence (Q96BR1 whole entry): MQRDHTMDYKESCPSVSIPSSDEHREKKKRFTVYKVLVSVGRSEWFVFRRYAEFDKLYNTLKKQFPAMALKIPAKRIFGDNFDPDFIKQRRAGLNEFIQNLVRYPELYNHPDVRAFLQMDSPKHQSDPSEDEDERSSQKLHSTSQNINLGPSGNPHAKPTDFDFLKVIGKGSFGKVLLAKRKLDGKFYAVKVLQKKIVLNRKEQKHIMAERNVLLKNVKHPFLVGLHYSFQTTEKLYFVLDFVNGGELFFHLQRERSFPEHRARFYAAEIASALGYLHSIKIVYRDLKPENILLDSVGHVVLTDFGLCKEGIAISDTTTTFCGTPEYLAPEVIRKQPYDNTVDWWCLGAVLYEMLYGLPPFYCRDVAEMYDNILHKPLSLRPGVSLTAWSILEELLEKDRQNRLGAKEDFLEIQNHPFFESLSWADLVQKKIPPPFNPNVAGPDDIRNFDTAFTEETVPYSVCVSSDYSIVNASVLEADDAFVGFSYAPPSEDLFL
Method in brief: as §1

[29] = molecular target: PIP4K2α(h) (Homo sapiens, UniProt P48426)
PIP4K2α(h), sequence (P48426 whole entry): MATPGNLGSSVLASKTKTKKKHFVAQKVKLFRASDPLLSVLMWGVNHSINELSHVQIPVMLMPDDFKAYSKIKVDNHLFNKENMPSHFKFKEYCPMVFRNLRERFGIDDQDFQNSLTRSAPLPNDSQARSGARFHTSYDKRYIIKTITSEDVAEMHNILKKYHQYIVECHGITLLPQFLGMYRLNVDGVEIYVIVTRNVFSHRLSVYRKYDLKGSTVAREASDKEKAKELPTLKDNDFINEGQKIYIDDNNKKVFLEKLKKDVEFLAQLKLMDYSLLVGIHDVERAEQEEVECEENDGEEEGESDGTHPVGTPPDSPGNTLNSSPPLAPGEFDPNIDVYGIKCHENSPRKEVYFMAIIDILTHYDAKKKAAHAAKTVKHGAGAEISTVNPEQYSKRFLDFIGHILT
Method in brief: as §1

[30] = molecular target: Tec(h) activated (Homo sapiens, UniProt P42680)
Method in brief: as §1

[31] = molecular target: Rsk4(h) (Homo sapiens, UniProt Q9UK32)
Rsk4(h), sequence (Q9UK32 whole entry): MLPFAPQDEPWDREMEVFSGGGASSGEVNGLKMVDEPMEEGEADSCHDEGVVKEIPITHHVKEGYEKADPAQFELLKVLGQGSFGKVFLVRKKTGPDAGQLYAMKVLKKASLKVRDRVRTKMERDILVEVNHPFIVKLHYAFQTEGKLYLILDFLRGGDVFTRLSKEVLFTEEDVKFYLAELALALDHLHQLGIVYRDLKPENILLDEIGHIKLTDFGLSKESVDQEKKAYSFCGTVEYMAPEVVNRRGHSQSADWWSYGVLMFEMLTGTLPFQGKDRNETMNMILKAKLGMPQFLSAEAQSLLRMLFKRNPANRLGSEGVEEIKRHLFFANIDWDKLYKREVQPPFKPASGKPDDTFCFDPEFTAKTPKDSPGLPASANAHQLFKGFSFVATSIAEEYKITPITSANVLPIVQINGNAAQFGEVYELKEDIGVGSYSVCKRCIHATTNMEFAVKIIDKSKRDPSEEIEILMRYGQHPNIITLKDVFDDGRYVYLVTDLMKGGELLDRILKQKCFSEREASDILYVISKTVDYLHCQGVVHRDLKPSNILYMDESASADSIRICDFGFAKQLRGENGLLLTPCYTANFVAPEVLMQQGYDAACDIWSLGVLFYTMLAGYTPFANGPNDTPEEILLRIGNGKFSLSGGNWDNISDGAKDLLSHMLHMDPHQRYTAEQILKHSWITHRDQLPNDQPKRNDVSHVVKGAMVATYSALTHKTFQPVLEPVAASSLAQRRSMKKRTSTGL
Method in brief: as §1

[32] = molecular target: BTK(h) (Homo sapiens, UniProt Q06187)
Method in brief: as §1

Row | SMILES | inhibition at 0.1 µM [1] [%] | inhibition at 0.1 µM [2] [%] | inhibition at 0.1 µM [3] [%] | inhibition at 0.1 µM [4] [%] | inhibition at 0.1 µM [5] [%] | inhibition at 0.1 µM [6] [%] | inhibition at 0.1 µM [7] [%] | inhibition at 0.1 µM [8] [%] | inhibition at 0.1 µM [9] [%] | inhibition at 0.1 µM [10] [%] | inhibition at 0.1 µM [11] [%] | inhibition at 0.1 µM [12] [%] | inhibition at 0.1 µM [13] [%] | inhibition at 0.1 µM [14] [%] | inhibition at 0.1 µM [15] [%] | inhibition at 0.1 µM [16] [%] | inhibition at 0.1 µM [17] [%] | inhibition at 0.1 µM [18] [%] | inhibition at 0.1 µM [19] [%] | inhibition at 0.1 µM [20] [%] | other results
1 | Cc1cc2c(F)c(Oc3nc(Nc4cc(C5CC5)[nH]n4)cc(N4CCN(C)CC4)n3)ccc2[nH]1 [Compound 10] | 5 | 63 | 75 | -1 | 100 | 88 | -13 | 94 | -25 | 12 | 68 | 0 | 18 | 53 | 84 | 101 | 69 | 69 | 4 | 97 | inhibition at 0.1 µM [21]: 23%; inhibition at 0.1 µM [22]: 0%; inhibition at 0.1 µM [23]: 86%; inhibition at 0.1 µM [24]: -12%; inhibition at 0.1 µM [25]: 99%; inhibition at 0.1 µM [26]: 80%; inhibition at 0.1 µM [27]: 0%; inhibition at 0.1 µM [28]: -5%; inhibition at 0.1 µM [29]: 1%; inhibition at 0.1 µM [30]: 46%; inhibition at 0.1 µM [31]: 36%; inhibition at 0.1 µM [32]: 50%
2 | Cc1cc2c(F)c(Oc3nc(Nc4cc(C5CC5)[nH]n4)cc(N4CCNCC4)n3)ccc2[nH]1 [Compound 11, N-(5-cyclopropyl-1H-pyrazol-3-yl)-2-((4-fluoro-2-methyl-1H-indol-5-yl)oxy)-6-(piperazin-1-yl)pyrimidin-4-amine] | 5 | 63 | 87 | -6 | 99 | 93 | 3 | 94 | -5 | 5 | 85 | -10 | 16 | 69 | 93 | 100 | 70 | 87 | -3 | 96 | inhibition at 0.1 µM [21]: 34%; inhibition at 0.1 µM [22]: 24%; inhibition at 0.1 µM [23]: 84%; inhibition at 0.1 µM [24]: -8%; inhibition at 0.1 µM [25]: 95%; inhibition at 0.1 µM [26]: 83%; inhibition at 0.1 µM [27]: 1%; inhibition at 0.1 µM [28]: 4%; inhibition at 0.1 µM [29]: -4%; inhibition at 0.1 µM [30]: 20%; inhibition at 0.1 µM [31]: 35%; inhibition at 0.1 µM [32]: 71%
